From US20250057790A1, “AN INJECTABLE PHARMACEUTICAL COMPOSITION FOR THE TREATMENT OF RESPIRATORY DISEASES IN ANIMALS” (priority 2021, published 2025)
Values after ≈ are worked out from the molar mass of the structure shown.

Assays:
[1] = test system: P. multocida (porcine origin); test: MIC determination, broth-microdilution (CLSI VET01-A4), field isolates; format: cell-based, Pasteurella multocida
Description: (§1) This study determined the in vitro activity Compound (A), the enantiomer of the compound of Formula (I), against different isolates of Actinobacillus (A.) pleuropneumoniae, Bordetella (B.) bronchiseptica, Mannheimia (M.) haemolytica, Pasteurella (P.) multocida, Histophilus (H.) somni and Glaesserella parasuis collected in different European countries.
(§2) The in vitro activity was determined by measuring the minimum inhibitory concentrations (MIC) according to CLSI document VET01-A4 [1] and by calculating MIC50 and MIC90.
(§3) A total of 193 field isolates were tested: 31 of A. pleuropneumoniae, 20 of B. bronchiseptica, 20 of H. somni, 20 H. parasuis, 55 of M. haemolytica and 47 of P. multocida. All bacteria were isolated from the respiratory tract of cattle and swine suffering from respiratory disease. All isolates were epidemiologically unrelated as specified by the different suppliers. E. coli ATCC 25922 (ID 6105) and M. haemolytica ATCC 33396 (ID 6374) were used as reference strains for testing isolates of B. bronchiseptica, M. haemolytica and P. multocida. A. pleuropneumoniae ATCC 27090 (ID 6314) and H. somni ATCC 700025 (ID 6315) were used as reference strains for the testing isolates of A. pleuropneumoniae, H. somni and Glaesserella parasuis. Additionally, H. parasuis (G. parasuis) ATCC 19417 was included as type strain for growth control.
(§4) • Mueller-Hinton agar (Becton Dickinson, Lot 9224866) • Cation-adjusted Mueller-Hinton broth, (CAVHB, Becton Dickinson, Lot 8190586) • Sheep blood, defibrinated (Thermo Scientific, Lot 37091500) • Chocolate agar, GC II with IsoVitalex™ (Becton Dickinson, Lot 0147695) • GC-agar base (Becton Dickinson, Lot 6082608) • Hemoglobin solution (Becton Dickinson, Lot 7142854) • Vitox (Oxoid, Lot 2344976) • Veterinary fastidious Medium (VFM), prepared according to CLSI document VET01-A4 [1], containing: • CAMHB (Becton Dickinson, Lot 8190586) • Yeast extract (Sigma, Lot BCBS5470V) • Lysed horse blood (Thermo Scientific, Lot 35875000) • Supplement C™ (Becton Dickinson, Lot 8030960) • Deionized water
(§5) The MICs for all isolates except for H. somni and Glaesserella parasuis isolates, were determined by using the broth-microdilution method according to CLSI document VET01-A4 [1]. For isolates of H. somni and Glaesserella parasuis the agar-dilution method with chocolate agar GC II, was used. The test concentration range for all compounds was 16 μg/mL to 0.016 μg/mL.
(§6) The MIC results were interpreted according to the CLSI document VET01-S3 [2]. […] All wells containing test item were compared with the growth-control wells. The lowest concentration of compound at which no visible growth (i.e. no turbidity) was detected by the unaided eye was recorded as the MIC. If a “trailing endpoint” occurs, the MIC is defined as the first concentration at which a markedly reduction (about 90%) of the inoculum is observed.
(§7) For isolates tested by the agar-dilution method, results were interpreted according to the CLSI document VET01-S3 [2]. […] The MIC50 and MIC90 represent the concentrations at which a minimum of 50% or 90% of the isolates tested are inhibited.

[2] = test system: P. multocida (bovine origin); test: as above; format: cell-based, Pasteurella multocida
Description: as §1, §2, §3, §4, §5, §6, §7

[3] = Pharmacokinetic analysis in blood plasma of cattle after single SC administration; format: in vivo; settings: for concentration at 0.25 h / concentration at 0.5 h / concentration at 1 h / concentration at 2 h / concentration at 4 h / concentration at 7 h / concentration at 10 h / concentration at 24 h / concentration at 32 h / concentration at 48 h / concentration at 72 h: bovine, plasma, sc, 10 mg/kg, cattle; for concentration at 0.25 h: 0.25 h after administration; for concentration at 0.5 h: 0.5 h after administration; for concentration at 1 h: 1 h after administration; for concentration at 2 h: 2 h after administration; for concentration at 4 h: 4 h after administration; for concentration at 7 h: 7 h after administration; for concentration at 10 h: 10 h after administration; for concentration at 24 h: 24 h after administration; for concentration at 32 h: 32 h after administration; for concentration at 48 h: 48 h after administration; for concentration at 72 h: 72 h after administration
Description: This study determined the bioavailability, the pharmacokinetic profile of Compound A formulations for subcutaneous (SC) injection in the blood plasma of cattle after a single subcutaneous (SC) administration of 10 mg/kg body weight. Concentrations in the blood plasma and bronchial epithelial lining fluid concentrations were determined. Additional tissues were collected post mortem for compound concentration determination.
Compound A was formulated as described in Examples 1 and 2 above. The aqueous solution formulation was Compound A 15% w/v, 15 w/v Kollisolv P124, 6% w/v benzyl alcohol, 7% w/v citric acid, and QS Water, pH 5.2. The oily suspension formulation was Compound A 17.5% w/v, suspended with 0.1% Kolliphor HS, and QS Miglyol812.
Samples were collected into K-EDTA coated Monovettes®. The samples were collected from the Vena jugularis externa. Preferred was the left side of the body, on the opposite side of administration.
The tubes were gently shaken to ensure proper mixing of blood with the anti-coagulant and placed in ice water until centrifugation. K-EDTA-Blood samples were centrifuged at approximately 4° C. and a relative centrifugal force of 2000 for 10 min. Within 2 hours after collection, two aliquots (1, 2) of approximately 0.5 mL blood plasma were pipetted off each sample into labeled plastic (polypropylene) freezer vials.
Pharmacokinetic (PK) parameters (Table 10-2) were calculated using the Phoenix WinNonlin 8.1 software. PK parameters (at least: Cmax, Tmax, AUClast, HL_Lambda_Z, VZ_F, MRTlast, CL_F and F %) to describe the PK profile after SC compound administration.

[4] = Pasteurella multocida, 22 isolates of porcine origin, broth microdilution
[5] = of 22 isolates tested, porcine origin
[6] = Pasteurella multocida, 25 isolates of bovine origin, broth microdilution
[7] = of 25 isolates tested, bovine origin
[8] = both aqueous solution group and oily suspension group, SC 10 mg/kg
[9] = SC 10 mg/kg 15% aqueous solution
[10] = SC 10 mg/kg 17.5% oily suspension

## COCCNCc1ccc(C#Cc2ccc(C(=O)N[C@H](C(=O)NO)C(C)(C)N)cc2)cc1 [Compound A]
[1]; [4]
  MIC50: 0.032 µg/mL (≈ 0.073 µM)
  MIC90: 0.063 µg/mL (≈ 0.144 µM)
[1]; [5]
  Distribution of MICs: number of isolates with MIC 0.032 μg/mL: 12
  Distribution of MICs: number of isolates with MIC 0.063 μg/mL: 6
  Distribution of MICs: number of isolates with MIC 0.125 μg/mL: 1
  Distribution of MICs: number of isolates with MIC ≤0.016 μg/mL: 3
[2]; [6]
  MIC50: 0.032 µg/mL (≈ 0.073 µM)
  MIC90: 0.063 µg/mL (≈ 0.144 µM)
[2]; [7]
  Distribution of MICs: number of isolates with MIC 0.032 μg/mL: 12
  Distribution of MICs: number of isolates with MIC 0.063 μg/mL: 6
  Distribution of MICs: number of isolates with MIC 0.125 μg/mL: 1
  Distribution of MICs: number of isolates with MIC ≤0.016 μg/mL: 6
[3]; [8]
  Compound persistence in cattle: around 11 h
  Period of constant plasma plateau levels after treatment: 4 to 10 h
  Time for which compound was detected in bovine plasma, on average: 72 h
[3]; [9]
  concentration at 0.25 h: 1440 ng/mL
  concentration at 0.5 h: 1630 ng/mL
  concentration at 1 h: 1260 ng/mL
  concentration at 2 h: 567 ng/mL
  concentration at 4 h: 363 ng/mL
  concentration at 7 h: 395 ng/mL
  concentration at 10 h: 320 ng/mL
  concentration at 24 h: 47 ng/mL
  concentration at 32 h: 22 ng/mL
  concentration at 48 h: 11.5 ng/mL
  concentration at 72 h: 6.55 ng/mL
[3]; [10]
  concentration at 0.25 h: 1220 ng/mL
  concentration at 0.5 h: 1090 ng/mL
  concentration at 1 h: 571 ng/mL
  concentration at 2 h: 413 ng/mL
  concentration at 4 h: 356 ng/mL
  concentration at 7 h: 433 ng/mL
  concentration at 10 h: 319 ng/mL
  concentration at 24 h: 56.5 ng/mL
  concentration at 32 h: 30.8 ng/mL
  concentration at 48 h: 13.2 ng/mL
  concentration at 72 h: 7.28 ng/mL
